Measurements taken from patent publication US11927585B2, “Solvent-based inks and coatings for food contact applications” (SUN CHEMICAL CORPORATION, priority 2020, dated 2024).
Where a name gives a salt, the structure may show the parent alone. Values belong to the compound of their own block, whether it stands above or below them.

Key:
[1] = Worst-case calculation, Application 2 cheese packaging wrap exposure scenario; conditions: 100% migration, 2.0 g/m^2 dry film
[2] = Worst-case calculation, Application 1 yoghurt pot lid exposure scenario; conditions: 100% migration, 2.0 g/m^2 dry film
[3] = source PR (EU Plastics Regulation No. 10/2011) or SO (Swiss Ordinance); EU Cube model; cited from earlier work
[4] = Worst-case calculation (100% migration), standard EU Cube exposure model; conditions: for Worst-case calculation as a percentage of SML (or restriction), EU Cube / Worst Case Calculation of migration in EU Cube model (as a percentage of SML): 100% migration; for Worst-case calculation as a percentage of SML (or restriction), EU Cube: 2.0 g/m^2 dry film; for Worst Case Calculation of migration in EU Cube model (as a percentage of SML): dry coat weight 2.0 g/m^2; for Worst Case Calculation of migration in EU Cube model: Basis for Safety outcome: volatile substance
[5] = substance in ink SBDEV976 (Ex. 4C Cyan)
[6] = substance in ink SBDEV977 (Ex. 4A Yellow)
[7] = substance in ink SBDEV979 (Ex. 4D Black)
[8] = substance in ink SBDEV980 (Ex. 4B Red)

Worst-case calculation as a percentage of SML (or restriction), Application 2 ([1]; product SBDEV976): 79.6 percentage of SML (or restriction)
Worst-case calculation as a percentage of SML (or restriction), Application 2 ([1]; product SBDEV977): 76.7 percentage of SML (or restriction)
Worst-case calculation as a percentage of SML (or restriction), Application 2 ([1]; product SBDEV979): 76.0 percentage of SML (or restriction)
Worst-case calculation as a percentage of SML (or restriction), Application 2 ([1]; product SBDEV980): 76.9 percentage of SML (or restriction)
Worst-case calculation as a percentage of SML (or restriction), Application 2 ([1]; product SBDEV1284): 76.01 percentage of SML (or restriction)
Worst-case calculation as a percentage of SML (or restriction), Application 2 ([1]; product SBDEV1285): 76.01 percentage of SML (or restriction)
Worst-case calculation as a percentage of SML (or restriction), Application 2 ([1]; product SBDEV1286): 76.01 percentage of SML (or restriction)
Worst-case calculation as a percentage of SML (or restriction), Application 2 ([1]; product SBDEV1287): 76.01 percentage of SML (or restriction)
Worst-case calculation as a percentage of SML (or restriction), Application 1 ([2]; product SBDEV976): 21.7 percentage of SML (or restriction)
Worst-case calculation as a percentage of SML (or restriction), Application 1 ([2]; product SBDEV977): 20.9 percentage of SML (or restriction)
Worst-case calculation as a percentage of SML (or restriction), Application 1 ([2]; product SBDEV979): 20.8 percentage of SML (or restriction)
Worst-case calculation as a percentage of SML (or restriction), Application 1 ([2]; product SBDEV980): 21.0 percentage of SML (or restriction)
Worst-case calculation as a percentage of SML (or restriction), Application 1 ([2]; product SBDEV1284): 20.73 percentage of SML (or restriction)
Worst-case calculation as a percentage of SML (or restriction), Application 1 ([2]; product SBDEV1285): 20.73 percentage of SML (or restriction)
Worst-case calculation as a percentage of SML (or restriction), Application 1 ([2]; product SBDEV1286): 20.73 percentage of SML (or restriction)
Worst-case calculation as a percentage of SML (or restriction), Application 1 ([2]; product SBDEV1287): 20.73 percentage of SML (or restriction)
Worst-case calculation as a percentage of SML (or restriction), EU Cube ([4]; product SBDEV976): 55.2 percentage of SML (or restriction)
Worst-case calculation as a percentage of SML (or restriction), EU Cube ([4]; product SBDEV977): 53.2 percentage of SML (or restriction)
Worst-case calculation as a percentage of SML (or restriction), EU Cube ([4]; product SBDEV979): 52.8 percentage of SML (or restriction)
Worst-case calculation as a percentage of SML (or restriction), EU Cube ([4]; product SBDEV980): 53.4 percentage of SML (or restriction)
Worst-case calculation as a percentage of SML (or restriction), EU Cube ([4]; product SBDEV1284): 52.8 percentage of SML (or restriction)
Worst-case calculation as a percentage of SML (or restriction), EU Cube ([4]; product SBDEV1285): 52.8 percentage of SML (or restriction)
Worst-case calculation as a percentage of SML (or restriction), EU Cube ([4]; product SBDEV1286): 52.8 percentage of SML (or restriction)
Worst-case calculation as a percentage of SML (or restriction), EU Cube ([4]; product SBDEV1287): 52.8 percentage of SML (or restriction)
Worst Case Calculation of migration in EU Cube model (as a percentage of SML) [4, 5]: 55.2 percentage of SML
Worst Case Calculation of migration in EU Cube model (as a percentage of SML) [4, 6]: 53.2 percentage of SML
Worst Case Calculation of migration in EU Cube model (as a percentage of SML) [4, 7]: 52.8 percentage of SML
Worst Case Calculation of migration in EU Cube model (as a percentage of SML) [4, 8]: 53.4 percentage of SML
Structure (SMILES): CCCCOC(=O)CC(O)(CC(=O)OCCCC)C(=O)OCCCC [0000077-94-1, Tributyl citrate]
SML or Restriction (mg substance/kg food) [3]: 0.05 mg substance/kg food

Structure (SMILES): CCO [0000064-17-5, ethanol]
SML or Restriction (mg substance/kg food) [3]: 60 mg substance/kg food
Worst Case Calculation of migration in EU Cube model: Basis for Safety outcome [4, 5]: Converter
Worst Case Calculation of migration in EU Cube model: Basis for Safety outcome [4, 6]: Converter
Worst Case Calculation of migration in EU Cube model: Basis for Safety outcome [4, 7]: Converter
Worst Case Calculation of migration in EU Cube model: Basis for Safety outcome [4, 8]: Converter
